Measurements taken from PMC3517300 (Journal of neurochemistry, 2012).

Tests used:
[1] = biological target: human dopamine transporter (DAT WT) (Homo sapiens, UniProt Q01959); assay: AMPH-induced DA efflux by RDEV, HEK 293-hDAT; assay type: cell-based; settings: for effect on corrected efflux Vmax / effect on Km and Vmax of AMPH-induced DA efflux (RDEV): WT; for effect on corrected efflux Vmax: repletion with 200 µM sterol after 5.0 mM mβCD, or 25 µg/ml nystatin; for effect on Km and Vmax of AMPH-induced DA efflux (RDEV): 5.0 mM mβCD or 25 µg/ml nystatin, 10 µM AMPH
[2] = tested on: hDAT surface expression in HEK-293 cells; assay: Surface biotinylation and immunoblot of DAT; assay type: cell-based, human; settings: treatment with mβCD, nystatin, or repletion with cholesterol or desmosterol
[3] = tested on: DAT in lipid rafts of HEK-293 hDAT cells; assay: Sucrose density fractionation, DAT association with lipid rafts; assay type: cell-based, human; settings: 1% Brij; depletion/chelation or repletion of mβCD depleted cells
[4] = tested on: unesterified cholesterol in HEK 293-hDAT cells; assay: Cholesterol quantification; assay type: cell-based, human; settings: for reduction of cholesterol content compared with untreated cells: 30 min, 37°C
W84L DAT mutant [5] = biological target: T1, W84L DAT mutant (Homo sapiens, UniProt Q01959, W84L); assay: AMPH-induced DA efflux by RDEV, W84L hDAT-HEK 293 cells; assay type: cell-based; settings: for effect on AMPH-induced DA efflux Km, Vmax (RDEV): 2.5 mM mβCD or 25 µg/ml nystatin, 10 µM AMPH
T1 sequence (Q01959 1-620 W84L): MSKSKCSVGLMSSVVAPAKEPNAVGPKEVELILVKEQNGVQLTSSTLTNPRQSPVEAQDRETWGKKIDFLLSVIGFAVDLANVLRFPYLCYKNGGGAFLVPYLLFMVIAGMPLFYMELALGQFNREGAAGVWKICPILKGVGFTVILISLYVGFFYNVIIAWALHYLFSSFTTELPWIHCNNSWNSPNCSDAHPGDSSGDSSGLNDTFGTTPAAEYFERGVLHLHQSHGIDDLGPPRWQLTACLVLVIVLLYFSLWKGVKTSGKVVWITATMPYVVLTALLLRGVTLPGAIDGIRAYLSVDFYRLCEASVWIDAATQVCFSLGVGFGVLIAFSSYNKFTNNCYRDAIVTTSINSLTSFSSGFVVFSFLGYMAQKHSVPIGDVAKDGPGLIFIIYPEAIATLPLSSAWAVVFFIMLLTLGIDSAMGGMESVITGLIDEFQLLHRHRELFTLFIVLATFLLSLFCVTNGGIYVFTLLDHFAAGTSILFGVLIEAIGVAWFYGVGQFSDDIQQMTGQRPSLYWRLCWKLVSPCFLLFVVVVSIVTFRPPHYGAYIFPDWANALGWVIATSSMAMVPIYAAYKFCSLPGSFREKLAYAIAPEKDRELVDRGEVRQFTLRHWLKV

[6] = biological target: human DAT (LLC-PK-hDAT cells) (Homo sapiens, UniProt Q01959); assay: AMPH-induced [^3H]DA efflux in LLC-PK-hDAT cells; assay type: cell-based
W84L DAT mutant [7] = biological target: T1, W84L DAT mutant; assay: DA uptake by RDEV, W84L hDAT-HEK 293 cells; assay type: cell-based; settings: 2.5 mM mβCD or 25 µg/ml nystatin
DAT = settings: raft-enriched fractions vs whole cells; ref Foster et al. 2008; cited from earlier work
[8] = tested on: cholesterol-depleted HuH7 hepatoma cells or hippocampal membranes; settings: within 1 hr; ref Vainio et al. 2006; Singh et al. 2009; cited from earlier work

Sequence of human DAT (LLC-PK-hDAT cells) (Q01959 whole entry): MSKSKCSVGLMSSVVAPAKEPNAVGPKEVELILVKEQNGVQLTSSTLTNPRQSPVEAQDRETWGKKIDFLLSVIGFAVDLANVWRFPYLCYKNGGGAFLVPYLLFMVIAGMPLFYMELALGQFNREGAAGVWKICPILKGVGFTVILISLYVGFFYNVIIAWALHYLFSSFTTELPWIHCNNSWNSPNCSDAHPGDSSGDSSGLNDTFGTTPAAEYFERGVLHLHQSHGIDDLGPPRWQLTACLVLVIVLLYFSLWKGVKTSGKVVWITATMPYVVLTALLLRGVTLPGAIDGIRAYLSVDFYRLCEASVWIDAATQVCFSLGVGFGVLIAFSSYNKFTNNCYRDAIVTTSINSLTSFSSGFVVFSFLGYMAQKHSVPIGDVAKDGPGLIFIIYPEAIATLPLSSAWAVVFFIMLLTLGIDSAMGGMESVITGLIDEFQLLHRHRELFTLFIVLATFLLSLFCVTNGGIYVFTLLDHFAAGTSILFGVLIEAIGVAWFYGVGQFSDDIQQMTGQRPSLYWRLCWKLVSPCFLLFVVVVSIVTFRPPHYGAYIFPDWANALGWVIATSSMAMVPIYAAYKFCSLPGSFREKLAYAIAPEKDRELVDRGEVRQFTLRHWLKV
Sequence of human dopamine transporter (DAT WT) (Q01959 whole entry): as above

| Compound | effect on corrected efflux Vmax [1] | changes in levels of DAT (total lysates and biotinylated surface fraction) [2] | DAT distribution across sucrose gradient fractions (raft association) [3] | effect on AMPH-induced DA efflux Km, Vmax (RDEV) (W84L DAT mutant [5]) | effect on Km and Vmax of AMPH-induced DA efflux (RDEV) [1] | effect on DA uptake Vmax and Km (RDEV) (W84L DAT mutant [7]) | other results |
| --- | --- | --- | --- | --- | --- | --- | --- |
| CC(C)CCC[C@@H](C)[C@H]1CC[C@H]2[C@@H]3CC=C4C[C@@H](O)CC[C@]4(C)[C@H]3CC[C@]12C [cholesterol] | indistinguishable from control values | no significant changes | restored DAT association with low buoyant density fractions | – | – | – | – |
| C[C@@H]1[C@H](O)[C@@H](C)/C=C/C=C/CC/C=C/C=C/C=C/C=C/C(O[C@H]2O[C@H](C)[C@@H](O)[C@H](N)[C@@H]2O)CC2O[C@](O)(CC(O)C(O)CCC(O)CC(O)CC(O)CC(=O)O[C@H]1C)CC(O)C2C(=O)O (some centres unmarked) [nystatin] | no significant change | no significant changes | significant shift of DAT out of raft fractions 3–4 into denser fractions 7 and up | did not affect | no effect | did not significantly change Vmax or Km | change of overall content of cholesterol ([4]; 25 µg/ml): did not change; AMPH-induced [^3H]DA efflux over basal levels ([6]; nystatin treated cells, 10 µM AMPH): 150% |
| NCCc1ccc(O)c(O)c1 [DA, dopamine] | – | – | – | – | – | – | IC50 of DA competing for [^3H]CFT binding, rafts vs whole cells (DAT): two-fold higher |
| CC(C)=CCC[C@@H](C)[C@H]1CC[C@H]2[C@@H]3CC=C4C[C@@H](O)CC[C@]4(C)[C@H]3CC[C@]12C [desmosterol] | indistinguishable from control values | no significant changes | inefficient at restoring rafts | – | – | – | increase in cholesterol after replenishment with desmosterol [8]: ≤ 10% |
| methyl-β-cyclodextrin [mβCD] | – | no significant changes | significant shift of DAT out of raft fractions 3–4 into denser fractions 7 and up | partial rescue of efflux Vmax | large reduction | enhanced uptake Vmax without altering Km | reduction of cholesterol content compared with untreated cells ([4]; 2.5 mM): 39%; reduction of cholesterol content compared with untreated cells ([4]; 5.0 mM): 63%; effect on Vmax ratio (incorporating the uptake correction) (W84L DAT mutant [5]; 2.5 mM mβCD): rescued to that of DAT WT control; AMPH-induced [^3H]DA efflux over basal levels ([6]; 2.5 mM mβCD, 10 µM AMPH): 122%; AMPH-induced [^3H]DA efflux over basal levels ([6]; 5.0 mM mβCD, 10 µM AMPH): 115%; loss in efflux function ([6]; 2.5 and 5.0 mM mβCD): ~ 20%; reduction in reverse transport (corrected efflux Vmax) ([1]; 5.0 mM mβCD vs control, 37°C): ~ 40% |
| C[C@H](N)Cc1ccccc1 [AMPH, dextroamphetamine] | – | – | – | – | – | – | [^3H]DA efflux over basal efflux ([6]; 10 µM AMPH, control cells, 5 min, 25°C): ~ 144% |
